The record followed here is the OPERA property sets (Mansouri et al. 2018).

The logP is the decadic logarithm of the partition coefficient of the neutral form, usually between octanol and water. Higher therefore signals higher lipophilicity.

Compound `c1ccc(O[Si]23OCCN(CCO2)CCO3)cc1` registered a logP of -0.3.

Compound `CCCC(C)n1nnc2ccccc21` (configuration not stated) showed a logP of 2.95.

For `COP(=O)(NC(C)(C)C)Oc1cc(Cl)c(Cl)cc1Cl` (configuration not stated), the logP stood at 3.83.

For `CC(=O)C(C#N)=NNc1ccc2c(c1)OC(F)(F)C(F)(F)O2`, the logP turned out to be 5.31.

As for `COC(=O)C(C#N)=NNc1cc(C(F)(F)F)cc(C(F)(F)F)c1`, the logP worked out at 5.02.

As for `CSCC1=C(C(=O)O)N2C(=O)C(NC(=O)Cc3cccs3)C2SC1` (configuration not stated), the logP stood at 1.01.

Regarding `COC(=O)C(C#N)=NNc1cc(Cl)c(Cl)cc1Cl`, the logP was 5.15.

The compound `CCCCCCCC[n+]1ccccc1.[I-]` had a logP of -0.84.

`O=C(COc1ccc(Cl)cc1)NNCc1ccccc1` displayed a logP of 2.92.

`Cn1ncc2ccccc2c1=O`: the logP turned out to be 0.61.

Consider `CCCOn1c(=O)c(Br)c(C)n(C)c1=O`, for which the logP amounted to 0.72.

With `Cc1ccccc1C(=N)c1ccccc1C`, the logP came to 3.31.

The compound `CC1=Nc2cc(C)ccc2S(=O)(=O)N1` yielded a logP of 0.74.

For `O=c1cn[nH]c2ccccc12`, the log partition coefficient (logP) came to 0.82.

Turning to `CC(C)(C)CC1=Nc2ccc(Cl)cc2S(=O)(=O)N1`, the logP was 2.71.

In the case of `Clc1cccc(Cl)c1-c1ccccc1`, the logP was 4.98.

Compound `Clc1ccccc1NC1=NCCN1` displayed a logP of 1.36.

As for `O=C(NC(CO)C(O)c1cccc([N+](=O)[O-])c1)C(Cl)Cl` (configuration not stated), the logP worked out at 1.15.

In turn, `COc1ccc(Cc2cnc(N)nc2N)cc1C` showed a logP of 1.91.

`CCOc1ccccc1OC(=O)NC` registered a logP of 1.24.

Take `CC1=Nc2cc([N+](=O)[O-])c(Cl)cc2S(=O)(=O)N1`: the logP worked out at 1.42. The logP values of the last two compounds are within 0.2 log units of each other.

For the compound `COC1(C(F)(F)F)C(Cl)C(Cl)C(Cl)C(Cl)C1Cl` (configuration not stated), the logP amounted to 4.06.

`CC12CCC(=O)C=C1C1(CC1)CC1C2CCC2(C)C1CCC21CCC(=O)O1` (configuration not stated): the log partition coefficient (logP) stood at 3.15.

`O=C1CN=C(c2ccccc2F)c2cc(Cl)ccc2N1`: the logP was found to be 2.7.

The compound `COc1ccc(N(C)C(C)=O)cc1` displayed a logP of 0.72.

In turn, `c1ccc(Sc2nnc[nH]2)cc1` registered a logP of 1.45.

In turn, `COC1C(Cl)C(Cl)C(Cl)C(OC)C1OC` (configuration not stated) had a logP of 1.87.

Take `NNC(=O)NN=Cc1ccccc1`: the logP turned out to be 0.81.

`CC(=O)N(CCCl)c1ccc(CC(=O)O)cc1` gave a logP of 1.2.

In the case of `CC(=O)Oc1ccc(C=CNC=O)cc1`, the logP amounted to 1.32.

In turn, `CCc1ccc2c(c1)N=C(C)NS2(=O)=O` registered a logP of 1.25.

Regarding `O=C1CN=C(c2ccccc2F)c2cc(I)ccc2N1CC(O)CO` (configuration not stated), the logP amounted to 1.81.

In the case of `CCCNc1ccc(C(=O)OCCN(C)C)cc1`, the logP is 3.15.

The compound `O=C1CC(C(=O)O)Oc2ccc(Cl)cc21` (configuration not stated) showed a logP of 1.77.

`O=C1CN=C(c2ccccc2F)c2cc(Cl)c(Cl)cc2N1` had a log partition coefficient (logP) of 3.63.

In turn, `CC1=Nc2ccc(F)cc2S(=O)(=O)N1` had a logP of 0.62.

On to `CON(C)C(=O)Nc1ccc(OCCc2ccccc2)cc1`, for which the logP was 4.5.

On to `CC(=O)N(CCO)c1c(I)c(C(=O)NCC(O)CO)c(I)c(C(=O)NCC(O)CO)c1I` (configuration not stated), for which the logP is -2.47.

In the case of `Cc1[nH]c(=O)n(O)c(=O)c1Br`, the logP was -1.12.

Turning to `CCC1(CC2COc3ccccc3O2)C(=O)NC(=O)NC1=O` (configuration not stated), the logP stood at 1.85.

`CNC(=O)NN` displayed a logP of -2.2.

For the compound `Cc1nnc(-c2ccccn2)o1`, the logP worked out at 0.46.

Compound `CC1=NS(=O)(=O)c2ccc(Cl)cc2N1` yielded a logP of 1.21.

Consider `CCc1cc(OP(=O)(OC)OC)ccc1[N+](=O)[O-]`, for which the logP was found to be 2.19.

The compound `CSC(C)=NOC(=O)N(C)SN(C)C(=O)c1ccccc1Cl` returned a logP of 2.5.

The compound `O=NN(CCF)C(=O)NC1CSCSC1` gave a logP of 1.54.

In the case of `O=NN(CCCl)C(=O)NCCCCNC(=O)N(CCCl)N=O`, the logP was found to be 0.9.

The compound `COC(=O)C(C#N)=NNc1cc(Cl)c(Cl)c(Cl)c1` had a logP of 5.22.

`Nc1ccc(OC(=O)CNC(=O)c2ccccc2)cc1` had a logP of 1.01.

In turn, `NNC(=O)c1ccc(N)cc1` had a logP of -0.75.

Take `CCCCCCCCCC[n+]1cc(C)cc(C)c1.[I-]`: the logP was found to be 0.76.

As for `CSc1nc2nc(SC)[nH]c(Cl)c-2n1`, the logP is 0.63.

Consider `O=[N+]([O-])C=Cc1ccccc1Cl`, for which the logP amounted to 2.85.

Consider `CN(C)c1cc(Cc2cnc(N)nc2N)cc(N(C)C)c1`, for which the logP stood at 1.6.

As for `CC(=O)Nc1n[nH]c(NC(C)=O)n1`, the logP is -1.02.

`CNP(=O)(OC)Oc1ccc(Cl)cc1Cl` (configuration not stated) displayed a logP of 2.41.

The compound `Cc1[nH]c(=O)n(OC(C)C)c(=O)c1Br` came in with a logP of 0.45.

Compound `COc1cc(Cc2cnc(N)nc2N)cc(OC)c1O` returned a logP of 0.37. The logP values of the last two compounds are within 0.2 log units of each other.

Take `C#CCN(C)N=Nc1nc[nH]c1C(N)=O`: the logP was determined as 0.33.

For the compound `CC(=O)N(CC(O)CO)c1c(I)c(C(=O)NCC(O)CO)c(I)c(C(=O)NCC(O)CO)c1I` (configuration not stated), the logP is -3.05.

In turn, `O=S1(=O)NC(C2CCCC2)=Nc2ccccc21` had a logP of 1.83.

For the compound `Nc1nc(N)nc(-c2ccc(Cl)cc2Br)n1`, the logP was found to be 2.09.

Compound `O=S(=O)(Nc1ccccc1)c1cccc2cccnc12` yielded a logP of 1.75.

As for `C#CC(C)(C)N(C)C(C)C`, the logP turned out to be 2.29.

For `C[N+](C)(C)Cc1cccnc1.[Br-]`, the logP was -3.5.

Consider `CN(C)C(=O)c1cnc2ccccc2c1`, for which the logP is 0.99.

Compound `CCOC(=O)CN(C(=O)CCl)c1ccccc1OC` returned a logP of 1.78.

`CCC(C)c1ccccc1OC(=O)N(C)C` (configuration not stated) returned a logP of 3.31.

As for `O=C(NN=Cc1ccccc1)c1ccccc1`, the logP came to 2.56.

As to `CNC1=NC(=O)C(=Cc2ccc([N+](=O)[O-])o2)S1`, the lipophilicity (logP) came to 1.16.

As for `CCNC1CC2CC1c1ccccc12` (configuration not stated), the logP worked out at 2.72.

Regarding `NNC(=O)c1ccccc1I`, the logP was found to be 0.47.

`CC(=O)NNC(=O)c1ccccn1` returned a logP of -0.57.

Consider `CCCOP(N)(=O)SCCC` (configuration not stated), for which the logP amounted to 1.23.

`CCCCCCCC1(CC)C(=O)NC(=O)NC1=O` showed a logP of 2.91.

In the case of `O=c1c2ccccc2ncn1O`, the logP is -0.45.

For the compound `O=C(O)COc1cccc(SC(F)(F)F)c1`, the logP was 2.86.

`COc1ccccc1C(=O)NCCCN(C)C` came in with a logP of 1.27.

The compound `CCOC(=O)C(C#N)=NNc1cc(Cl)c(Cl)cc1Cl` gave a logP of 5.21.

The compound `CC(=O)C(C#N)=NNc1cc(C(F)(F)F)ccc1Cl` yielded a logP of 5.08.

Compound `COc1ccc(C2=NCC(=O)N(C)c3ccc(Cl)cc32)cc1` showed a logP of 3.15.

Turning to `O=NN(CCCl)C(=O)NC1CSCSC1`, the logP was 2.08.

With `O=C1C=C(Nc2ccccc2)C(=O)c2ccccc21`, the logP was found to be 2.84.

As for `COc1ccc(Cc2cnc(N)nc2N)cc1Cl`, the log partition coefficient (logP) worked out at 1.65.

Compound `OCC1OC(Oc2ccccc2I)C(O)C(O)C1O` (configuration not stated) had a logP of 0.27.

In turn, `CN(N=O)C(=O)N(C)c1ccccc1` gave a logP of 1.58.

For `Clc1nc2c(Cl)c(Cl)c(Cl)c(Cl)c2[nH]1`, the logP came to 4.53.

In turn, `OCC1OC(SCCCc2ccccc2)C(O)C(O)C1O` (configuration not stated) came in with a logP of 0.38.

`COc1ccccc1NC(=O)C(Cl)Cl` gave a lipophilicity (logP) of 2.41.

For `O=C(c1ccccc1)c1ccc(N=C=S)cc1`, the logP worked out at 4.88.

Regarding `CSC(C)=NOC(=O)N(C)SN(C)C(=O)c1cccc(C(F)(F)F)c1`, the logP came out at 2.5.

Compound `CN(Cc1ccc([N+](=O)[O-])cc1)N=Nc1ccc(C(=O)O)cc1` registered a logP of 4.03.

Consider `COc1cc(C)n(-c2cc(C)nc(C)n2)n1`, for which the logP turned out to be 2.6.

Take `NC(=O)N(CCCN(N=O)C(N)=O)N=O`: the logP was -0.3.

As to `CCCCCCCCCC[n+]1ccc(C)cc1C.[I-]`, the logP amounted to 0.54.

As for `CSC(C)=NOC(=O)N(C)SN(C)C(=O)c1c(Cl)cccc1Cl`, the logP is 2.6.

Compound `CN(C)N=Nc1ccc(NC(N)=O)cc1` registered a logP of 1.25.

Consider `Clc1ccc(Cl)c(-c2ccccc2)c1Cl`, for which the lipophilicity (logP) came out at 5.67.

`CCCCO[N+](=O)[O-]` came in with a logP of 2.15.

`CC(C)Nc1ccccc1C(N)=O` came in with a logP of 2.07.

`CON(C)C(=O)Nc1cccc(OCc2ccccc2)c1` displayed a logP of 3.11.

`CCOC(=O)CCCn1nnc2ccccc21` yielded a logP of 1.86.

For `O=C(O)CCN1C(=O)C=CC1=O`, the logP worked out at 0.04.

`O=C(c1ccncc1)c1ccc(Cl)cc1` returned a logP of 2.61.

Take `Cc1ccc(NC(=O)c2ccco2)c(O)c1`: the logP turned out to be 2.84.

Consider `COc1ccc(N2C(N)=NC(N)=NC2(C)C)cc1`, for which the logP is 0.4.

Take `C=CC(CC)OC(N)=O` (configuration not stated): the logP worked out at 1.09.

`CC(C)N(N=O)C(=O)Nc1ccccc1` yielded a logP of 2.5.

In the case of `O=[N+]([O-])c1ccc(C=Cc2nccc(Cl)n2)o1`, the logP was 1.31.

In the case of `Cn1c(=O)nc(-c2ccccc2)c2ccccc21`, the logP was found to be 1.79.

Take `Cc1cc([N+](=O)[O-])c2ccccc2[n+]1[O-]`: the logP worked out at 1.25.

`COCN1C(=O)CN=C(c2ccccc2)c2cc(Cl)ccc21` displayed a log partition coefficient (logP) of 2.86.

Compound `COc1cc(Cc2cnc(N)nc2N)ccc1SC` returned a logP of 1.92.

For the compound `CC(C)Sc1nnc(C(C)C)c(=O)n1N`, the lipophilicity (logP) came to 2.06.

`CC(=O)Cn1ccnc1[N+](=O)[O-]`: the logP is -0.34.

`FC(F)(F)c1nc2ncccc2[nH]1`: the logP was found to be 1.38.

For `Cc1[nH]c(=O)n(OCCCl)c(=O)c1Br`, the logP turned out to be 0.3.

The compound `O=C(CN1CCCCC1)Nc1ccc([N+](=O)[O-])cc1` came in with a logP of 2.72.

Compound `CN1CCN(C(=O)c2ccccc2)CC1` yielded a logP of 0.35.

Consider `O=[N+]([O-])c1nccn1CC(O)COCC(F)(F)F` (configuration not stated), for which the logP stood at 0.52.

For `C[N+](C)(C)Cc1cccc(C(N)=O)c1.[Br-]`, the logP was -2.8.

For the compound `[O-][n+]1ccccc1SCc1ccccc1`, the logP came to 1.24.

`Cc1nnc(N)o1` yielded a logP of -0.92.

Consider `CCC(=O)CC(=O)CC`, for which the logP is 1.12.

As to `COc1ccc(C=C[N+](=O)[O-])cc1`, the logP was found to be 2.2.

The compound `CNC(=O)C(NC(C)=O)C(C)C` (configuration not stated) had a logP of -0.35.

In turn, `COc1cc(Cc2cnc(N)nc2N)cc(OC)c1C(C)C` had a logP of 3.37.
